Test results: PubChem BioAssay AID2060905 (Molecular Pharmacology Branch, DTP, NCI, 2025)
pIC50: −log10 of the molar value.

Tested on: 282377-053-R-J1-PDC complex spheroid viability
Assay: Anticancer human tumor 282377-053-R-J1-PDC patient-derived colon adenocarcinoma cell line growth inhibition [RAS]
Settings: for pIC50: curve of first compound; for viability, T/C: stronger effect = lower value
Method in brief: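 Agents were tested in combination matrices in half-log decrements from a top concentration at or near clinical Cmax (10 microM if undetermined). Targets were multi-cell spheroids of tumour lines plus HUVEC and MSC stromal cells.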
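Note: spheroids exposed to agents for seven days before readout.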
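Throughout, for viability, T/C: luminescence viability as percent of DMSO vehicle control wells.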

Work on `CCc1c2c(nc3ccc(O)cc13)-c1cc3c(c(=O)n1C2)COC(=O)[C@]3(O)CC` + C#Cc1c(F)ccc2cc(O)cc(-c3ncc4c(N5CC6CCC(C5)N6)nc(OCC56CCCN5CC(F)C6)nc4c3F)c12 yielded a pIC50 (second compound 0.0316 µM) of less than 6.52, a pIC50 (second compound 0.1 µM) of less than 6.52 and a pIC50 (second compound 0.316 µM) of less than 6.52. The pIC50 (second compound 1 µM) was less than 6.52, the pIC50 (second compound 3.16 µM) was less than 6.52 and the pIC50 (second compound 10 µM) was less than 6.52. For the same compound, the viability, T/C (second compound 0.0316 µM, first compound 0.000949 µM) was 97%, the viability, T/C (second compound 0.0316 µM, first compound 0.003 µM) was 131% and the viability, T/C (second compound 0.0316 µM, first compound 0.00949 µM) was 120%. It also gave a viability, T/C (second compound 0.0316 µM, first compound 0.03 µM) of 96.8%, a viability, T/C (second compound 0.0316 µM, first compound 0.0949 µM) of 88.2% and a viability, T/C (second compound 0.0316 µM, first compound 0.3 µM) of 53%. The viability, T/C (second compound 0.1 µM, first compound 0.000949 µM) was 113%, the viability, T/C (second compound 0.1 µM, first compound 0.003 µM) was 122% and the viability, T/C (second compound 0.1 µM, first compound 0.00949 µM) was 130%. For the same compound, the viability, T/C (second compound 0.1 µM, first compound 0.03 µM) was 95.8%, the viability, T/C (second compound 0.1 µM, first compound 0.0949 µM) was 84.5% and the viability, T/C (second compound 0.1 µM, first compound 0.3 µM) was 61.4%. It also gave a viability, T/C (second compound 0.316 µM, first compound 0.000949 µM) of 117%, a viability, T/C (second compound 0.316 µM, first compound 0.003 µM) of 128% and a viability, T/C (second compound 0.316 µM, first compound 0.00949 µM) of 109%. It also gave a viability, T/C (second compound 0.316 µM, first compound 0.03 µM) of 101%, a viability, T/C (second compound 0.316 µM, first compound 0.0949 µM) of 85.6% and a viability, T/C (second compound 0.316 µM, first compound 0.3 µM) of 55.6%. It also gave a viability, T/C (second compound 1 µM, first compound 0.000949 µM) of 108%, a viability, T/C (second compound 1 µM, first compound 0.003 µM) of 104% and a viability, T/C (second compound 1 µM, first compound 0.00949 µM) of 113%. For the same compound, the viability, T/C (second compound 1 µM, first compound 0.03 µM) was 95.3%, the viability, T/C (second compound 1 µM, first compound 0.0949 µM) was 80.1% and the viability, T/C (second compound 1 µM, first compound 0.3 µM) was 61%. It also gave a viability, T/C (second compound 3.16 µM, first compound 0.000949 µM) of 115%, a viability, T/C (second compound 3.16 µM, first compound 0.003 µM) of 127% and a viability, T/C (second compound 3.16 µM, first compound 0.00949 µM) of 125%. The viability, T/C (second compound 3.16 µM, first compound 0.03 µM) was 100%, the viability, T/C (second compound 3.16 µM, first compound 0.0949 µM) was 97.5% and the viability, T/C (second compound 3.16 µM, first compound 0.3 µM) was 66.3%. It also gave a viability, T/C (second compound 10 µM, first compound 0.000949 µM) of 97.1%, a viability, T/C (second compound 10 µM, first compound 0.003 µM) of 112% and a viability, T/C (second compound 10 µM, first compound 0.00949 µM) of 116%. For the same compound, the viability, T/C (second compound 10 µM, first compound 0.03 µM) was 102%, the viability, T/C (second compound 10 µM, first compound 0.0949 µM) was 87.9% and the viability, T/C (second compound 10 µM, first compound 0.3 µM) was 63.5%.
Work on `CCN1CCN(Cc2ccc(Nc3ncc(F)c(-c4cc(F)c5nc(C)n(C(C)C)c5c4)n3)nc2)CC1` + CCn1c(-c2cccnc2C(C)OC)c2c3cc(ccc31)N1CCOC(CC(NC(=O)C(C(C)C)N(C)C(=O)C3(F)CCN(C(=O)C#CC(C)(C)N(C)C)CC3)C(=O)N3CCCC(N3)C(=O)OCC(C)(C)C2)C1 yielded a pIC50 (second compound 0.000949 µM) of less than 6.00, a pIC50 (second compound 0.003 µM) of less than 6.00 and a pIC50 (second compound 0.00949 µM) of less than 6.00. The pIC50 (second compound 0.03 µM) was less than 6.00, the pIC50 (second compound 0.0949 µM) was less than 6.00 and the pIC50 (second compound 0.3 µM) was less than 6.00. It also gave a viability, T/C (second compound 0.000949 µM, first compound 0.00316 µM) of 117%, a viability, T/C (second compound 0.000949 µM, first compound 0.01 µM) of 100% and a viability, T/C (second compound 0.000949 µM, first compound 0.0316 µM) of 104%. The viability, T/C (second compound 0.000949 µM, first compound 0.1 µM) was 97.3%, the viability, T/C (second compound 0.000949 µM, first compound 0.316 µM) was 137% and the viability, T/C (second compound 0.000949 µM, first compound 1 µM) was 229%. The viability, T/C (second compound 0.003 µM, first compound 0.00316 µM) was 137%, the viability, T/C (second compound 0.003 µM, first compound 0.01 µM) was 113% and the viability, T/C (second compound 0.003 µM, first compound 0.0316 µM) was 94.6%. It also gave a viability, T/C (second compound 0.003 µM, first compound 0.1 µM) of 99%, a viability, T/C (second compound 0.003 µM, first compound 0.316 µM) of 144% and a viability, T/C (second compound 0.003 µM, first compound 1 µM) of 204%. It also gave a viability, T/C (second compound 0.00949 µM, first compound 0.00316 µM) of 111%, a viability, T/C (second compound 0.00949 µM, first compound 0.01 µM) of 106% and a viability, T/C (second compound 0.00949 µM, first compound 0.0316 µM) of 122%. It also gave a viability, T/C (second compound 0.00949 µM, first compound 0.1 µM) of 90.4%, a viability, T/C (second compound 0.00949 µM, first compound 0.316 µM) of 156% and a viability, T/C (second compound 0.00949 µM, first compound 1 µM) of 208%. For the same compound, the viability, T/C (second compound 0.03 µM, first compound 0.00316 µM) was 104%, the viability, T/C (second compound 0.03 µM, first compound 0.01 µM) was 99.5% and the viability, T/C (second compound 0.03 µM, first compound 0.0316 µM) was 113%. It also gave a viability, T/C (second compound 0.03 µM, first compound 0.1 µM) of 110%, a viability, T/C (second compound 0.03 µM, first compound 0.316 µM) of 134% and a viability, T/C (second compound 0.03 µM, first compound 1 µM) of 238%. The viability, T/C (second compound 0.0949 µM, first compound 0.00316 µM) was 102%, the viability, T/C (second compound 0.0949 µM, first compound 0.01 µM) was 109% and the viability, T/C (second compound 0.0949 µM, first compound 0.0316 µM) was 120%. For the same compound, the viability, T/C (second compound 0.0949 µM, first compound 0.1 µM) was 116%, the viability, T/C (second compound 0.0949 µM, first compound 0.316 µM) was 125% and the viability, T/C (second compound 0.0949 µM, first compound 1 µM) was 250%. The viability, T/C (second compound 0.3 µM, first compound 0.00316 µM) was 93%, the viability, T/C (second compound 0.3 µM, first compound 0.01 µM) was 106% and the viability, T/C (second compound 0.3 µM, first compound 0.0316 µM) was 87.2%. The viability, T/C (second compound 0.3 µM, first compound 0.1 µM) was 124%, the viability, T/C (second compound 0.3 µM, first compound 0.316 µM) was 160% and the viability, T/C (second compound 0.3 µM, first compound 1 µM) was 221%.
